What was measured:
ABHD6 = target: T1, ABHD6 (Mus musculus, UniProt Q8R2Y0); test: In vitro competitive activity-based protein profiling (HT-01 probe, gel band ABHD6); format: biochemical; parameters: ABHD6 % at 100 μM: scale not given here; conditions: mouse brain membrane proteomes; for IC50: 30 min preincubation at 37° C
T1 construct: Mouse brain membrane proteomes (50 μL, 1.0 mg/mL total protein concentration) were preincubated; from tissue; host or cells: mouse brain membrane fraction
T1 sequence (Q8R2Y0 1-336): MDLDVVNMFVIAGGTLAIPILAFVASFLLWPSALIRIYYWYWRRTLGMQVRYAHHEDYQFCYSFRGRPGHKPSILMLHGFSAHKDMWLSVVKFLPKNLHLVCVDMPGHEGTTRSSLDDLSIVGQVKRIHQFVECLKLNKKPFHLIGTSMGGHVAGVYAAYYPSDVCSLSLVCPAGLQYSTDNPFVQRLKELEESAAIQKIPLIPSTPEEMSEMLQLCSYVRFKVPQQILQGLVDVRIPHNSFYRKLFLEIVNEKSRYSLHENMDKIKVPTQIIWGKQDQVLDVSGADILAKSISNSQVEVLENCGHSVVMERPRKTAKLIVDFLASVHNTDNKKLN
Method: (§1) Compounds are tested to assess their Lp-PLA2 and serine hydrolase activity using the following in vitro assays.
(§2) In Vitro Competitive Activity-Based Protein Profiling
(§3) Mouse brain membrane proteomes (50 μL, 1.0 mg/mL total protein concentration) were preincubated with varying concentrations of inhibitors at 37° C. After 30 min, HT-01 probe (1.0 μL, 50 μM in DMSO) was added and the mixture was incubated for another 30 min at room temperature. Reactions were quenched with SDS loading buffer (15 μL-4×) and run on SDS-PAGE gels. Following gel imaging, serine hydrolase activity was determined by measuring fluorescent intensity of gel bands corresponding to PLA2G7 and ABHD6 using ImageJ 1.49 k software.

Lp-PLA2 = target: T2, Lp-PLA2 (Mus musculus, UniProt Q60963); test: In vitro competitive activity-based protein profiling (HT-01 probe, gel band PLA2G7); format: biochemical; parameters: Lp-PLA2 % at 100 μM: scale not given here; conditions: mouse brain membrane proteomes; for IC50: 30 min preincubation at 37° C
T2 construct: Mouse brain membrane proteomes (50 μL, 1.0 mg/mL total protein concentration) were preincubated; from tissue; host or cells: mouse brain membrane fraction
T2 sequence (Q60963 22-440): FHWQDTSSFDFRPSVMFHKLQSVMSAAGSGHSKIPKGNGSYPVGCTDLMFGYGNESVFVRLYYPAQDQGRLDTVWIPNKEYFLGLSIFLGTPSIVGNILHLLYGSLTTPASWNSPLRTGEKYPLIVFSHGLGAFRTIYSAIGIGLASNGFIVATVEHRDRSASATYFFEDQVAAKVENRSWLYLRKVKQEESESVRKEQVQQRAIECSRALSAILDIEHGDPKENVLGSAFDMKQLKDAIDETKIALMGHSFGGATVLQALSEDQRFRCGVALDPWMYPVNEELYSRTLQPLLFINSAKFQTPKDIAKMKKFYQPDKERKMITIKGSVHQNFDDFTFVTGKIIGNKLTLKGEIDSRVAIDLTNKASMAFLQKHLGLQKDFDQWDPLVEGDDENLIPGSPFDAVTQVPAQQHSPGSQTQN
Method: as §1, §2, §3

SMILES | IC50 (ABHD6) | IC50 (Lp-PLA2) | other results
CC(C)[C@@H]1NC(=O)N(OC(=O)N2CCN(c3cccc(C(=O)N4CCCC4)c3Cl)CC2)C1=O [Example 1, (S)-4-isopropyl-2,5-dioxoimidazolidin-1-yl 4-(2-chloro-3-(pyrrolidine-1-carbonyl)phenyl)piperazine-1-carboxylate] | < 100 nM | 100 to 1000 nM | –
CC(C)[C@@H]1NC(=O)N(OC(=O)N2CCN(c3cccc(C(=O)N4CCCCC4)c3Cl)CC2)C1=O [Example 2, (S)-4-isopropyl-2,5-dioxoimidazolidin-1-yl 4-(2-chloro-3-(piperidine-1-carbonyl)phenyl)piperazine-1-carboxylate] | 100 to 1000 nM | 100 to 1000 nM | –
CC(C)[C@@H]1NC(=O)N(OC(=O)N2CCN(c3cccc(C(=O)N4CCOCC4)c3Cl)CC2)C1=O [Example 3, (S)-4-isopropyl-2,5-dioxoimidazolidin-1-yl 4-(2-chloro-3-(morpholine-4-carbonyl)phenyl)piperazine-1-carboxylate] | 100 to 1000 nM | 100 to 1000 nM | –
CC(C)[C@H]1NC(=O)N(OC(=O)N2CCN(c3cccc(C(=O)N4CCCC4)c3Cl)CC2)C1=O [Example 4, (R)-4-isopropyl-2,5-dioxoimidazolidin-1-yl 4-(2-chloro-3-(pyrrolidine-1-carbonyl)phenyl)piperazine-1-carboxylate] | 100 to 1000 nM | – | inhibition at 10 µM (Lp-PLA2): 75%
CC(C)[C@H]1NC(=O)N(OC(=O)N2CCN(c3cccc(C(=O)N4CCCCC4)c3Cl)CC2)C1=O [Example 5, (R)-4-isopropyl-2,5-dioxoimidazolidin-1-yl 4-(2-chloro-3-(piperidine-1-carbonyl)phenyl)piperazine-1-carboxylate] | 100 to 1000 nM | – | inhibition at 10 µM (Lp-PLA2): 75%
CC(C)[C@H]1NC(=O)N(OC(=O)N2CCN(c3cccc(C(=O)N4CCOCC4)c3Cl)CC2)C1=O [Example 6, (R)-4-isopropyl-2,5-dioxoimidazolidin-1-yl 4-(2-chloro-3-(morpholine-4-carbonyl)phenyl)piperazine-1-carboxylate] | 100 to 1000 nM | – | inhibition at 10 µM (Lp-PLA2): 75%
O=C(ON1C(=O)N[C@@H](Cc2ccccc2)C1=O)N1CCN(c2cccc(C(=O)N3CCCC3)c2Cl)CC1 [Example 7, (S)-4-benzyl-2,5-dioxoimidazolidin-1-yl 4-(2-chloro-3-(pyrrolidine-1-carbonyl)phenyl)piperazine-1-carboxylate] | < 100 nM | < 100 nM | –
O=C(ON1C(=O)N[C@@H](Cc2ccccc2)C1=O)N1CCN(c2cccc(C(=O)N3CCCCC3)c2Cl)CC1 [Example 8, (S)-4-benzyl-2,5-dioxoimidazolidin-1-yl 4-(2-chloro-3-(piperidine-1-carbonyl)phenyl)piperazine-1-carboxylate] | 100 to 1000 nM | < 100 nM | –
O=C(ON1C(=O)N[C@@H](Cc2ccccc2)C1=O)N1CCN(c2cccc(C(=O)N3CCOCC3)c2Cl)CC1 [Example 9, (S)-4-benzyl-2,5-dioxoimidazolidin-1-yl 4-(2-chloro-3-(morpholine-4-carbonyl)phenyl)piperazine-1-carboxylate] | 100 to 1000 nM | < 100 nM | –
O=C(ON1C(=O)N[C@H](Cc2ccccc2)C1=O)N1CCN(c2cccc(C(=O)N3CCCC3)c2Cl)CC1 [Example 10, (R)-4-benzyl-2,5-dioxoimidazolidin-1-yl 4-(2-chloro-3-(pyrrolidine-1-carbonyl)phenyl)piperazine-1-carboxylate] | < 100 nM | < 100 nM | –
O=C(ON1C(=O)N[C@H](Cc2ccccc2)C1=O)N1CCN(c2cccc(C(=O)N3CCCCC3)c2Cl)CC1 [Example 11, (R)-4-benzyl-2,5-dioxoimidazolidin-1-yl 4-(2-chloro-3-(piperidine-1-carbonyl)phenyl)piperazine-1-carboxylate] | < 100 nM | < 100 nM | –
O=C(ON1C(=O)N[C@H](Cc2ccccc2)C1=O)N1CCN(c2cccc(C(=O)N3CCOCC3)c2Cl)CC1 [Example 12, (R)-4-benzyl-2,5-dioxoimidazolidin-1-yl 4-(2-chloro-3-(morpholine-4-carbonyl)phenyl)piperazine-1-carboxylate] | < 100 nM | < 100 nM | –
O=C(ON1C(=O)N[C@@H](Cc2ccccc2)C1=O)N1CCN(c2cccc(C(=O)N3CCCCC3)c2)CC1 [Example 13, (S)-4-benzyl-2,5-dioxoimidazolidin-1-yl 4-(3-(piperidine-1-carbonyl)phenyl)piperazine-1-carboxylate] | < 100 nM | < 100 nM | –
CN1CCN(C(=O)c2cccc(N3CCN(C(=O)ON4C(=O)N[C@@H](Cc5ccccc5)C4=O)CC3)c2Cl)CC1 [Example 14, (S)-4-benzyl-2,5-dioxoimidazolidin-1-yl 4-(2-chloro-3-(4-methylpiperazine-1-carbonyl)phenyl)piperazine-1-carboxylate] | < 100 nM | < 100 nM | –
O=C(ON1C(=O)N[C@@H](Cc2ccccc2)C1=O)N1CCN(c2ccc(C(=O)N3CCCCC3)cc2Cl)CC1 [Example 15, (S)-4-benzyl-2,5-dioxoimidazolidin-1-yl 4-(2-chloro-4-(piperidine-1-carbonyl)phenyl)piperazine-1-carboxylate] | < 100 nM | < 100 nM | –
CN(C)C(=O)c1cccc(N2CCN(C(=O)ON3C(=O)N[C@@H](Cc4ccccc4)C3=O)CC2)c1Cl [Example 16, (S)-4-benzyl-2,5-dioxoimidazolidin-1-yl 4-(2-chloro-3-(dimethylcarbamoyl)phenyl)piperazine-1-carboxylate] | < 100 nM | < 100 nM | –
O=C(ON1C(=O)N[C@@H](Cc2ccccc2)C1=O)N1CCN(c2cc(C(=O)N3CCCCC3)ccc2Cl)CC1 [Example 17, (S)-4-benzyl-2,5-dioxoimidazolidin-1-yl 4-(2-chloro-5-(piperidine-1-carbonyl)phenyl)piperazine-1-carboxylate] | < 100 nM | < 100 nM | –
NC(=O)c1cccc(N2CCN(C(=O)ON3C(=O)N[C@@H](Cc4ccccc4)C3=O)CC2)c1Cl [Example 18, (S)-4-benzyl-2,5-dioxoimidazolidin-1-yl 4-(3-carbamoyl-2-chlorophenyl)piperazine-1-carboxylate] | – | – | ABHD6 % at 100 μM (ABHD6): 25% at 100 μM; Lp-PLA2 % at 100 μM (Lp-PLA2): 25% at 100 μM
O=C(O)c1cccc(N2CCN(C(=O)ON3C(=O)N[C@@H](Cc4ccccc4)C3=O)CC2)c1Cl [Example 19, (S)-3-(4-((4-benzyl-2,5-dioxoimidazolidin-1-yloxy)carbonyl)piperazin-1-yl)-2-chlorobenzoic acid] | > 1000 nM | > 1000 nM | –
CN1C(=O)N(OC(=O)N2CCN(c3cccc(C(=O)N4CCCCC4)c3Cl)CC2)C(=O)[C@@H]1Cc1ccccc1 [Example 20, (S)-4-benzyl-3-methyl-2,5-dioxoimidazolidin-1-yl 4-(2-chloro-3-(piperidine-1-carbonyl)phenyl)piperazine-1-carboxylate] | < 100 nM | < 100 nM | –
O=C(ON1C(=O)N[C@@H](Cc2ccccc2)C1=O)N1CCCN(c2cccc(C(=O)N3CCCCC3)c2Cl)CC1 [Example 21, (S)-4-benzyl-2,5-dioxoimidazolidin-1-yl 4-(2-chloro-3-(piperidine-1-carbonyl)phenyl)-1,4-diazepane-1-carboxylate] | – | – | inhibition at 10 µM (ABHD6; at 10 μM): 100%; inhibition at 10 µM (Lp-PLA2): 100%
O=C(ON1C(=O)N[C@@H](Cc2ccc(C(F)(F)F)cc2)C1=O)N1CCN(c2cccc(C(=O)N3CCCCC3)c2Cl)CC1 [Example 22, (S)-2,5-dioxo-4-(4-(trifluoromethyl)benzyl)imidazolidin-1-yl 4-(2-chloro-3-(piperidine-1-carbonyl)phenyl)piperazine-1-carboxylate] | < 100 nM | < 100 nM | –
O=C(ON1C(=O)N[C@@H](Cc2ccc(Cl)cc2)C1=O)N1CCN(c2cccc(C(=O)N3CCCCC3)c2Cl)CC1 [Example 23, (S)-4-(4-chlorobenzyl)-2,5-dioxoimidazolidin-1-yl 4-(2-chloro-3-(piperidine-1-carbonyl)phenyl)piperazine-1-carboxylate] | – | – | ABHD6 % at 100 μM (ABHD6): 50% at 100 μM; Lp-PLA2 % at 100 μM (Lp-PLA2): 50% at 100 μM
COc1ccc(C[C@@H]2NC(=O)N(OC(=O)N3CCN(c4cccc(C(=O)N5CCCCC5)c4Cl)CC3)C2=O)cc1 [Example 24, (S)-4-(4-methoxybenzyl)-2,5-dioxoimidazolidin-1-yl 4-(2-chloro-3-(piperidine-1-carbonyl)phenyl)piperazine-1-carboxylate] | < 100 nM | < 100 nM | –
